pKi: −log10 of the molar value.
Tests used:
[1] = molecular target: T1, 5-hydroxytryptamine receptor 1A (Homo sapiens) (UniProt P08908); test: Displacement of [3H]-8-OH-DPAT from 5HT1A receptor (unknown origin) at 10 uM
T1 sequence (whole entry): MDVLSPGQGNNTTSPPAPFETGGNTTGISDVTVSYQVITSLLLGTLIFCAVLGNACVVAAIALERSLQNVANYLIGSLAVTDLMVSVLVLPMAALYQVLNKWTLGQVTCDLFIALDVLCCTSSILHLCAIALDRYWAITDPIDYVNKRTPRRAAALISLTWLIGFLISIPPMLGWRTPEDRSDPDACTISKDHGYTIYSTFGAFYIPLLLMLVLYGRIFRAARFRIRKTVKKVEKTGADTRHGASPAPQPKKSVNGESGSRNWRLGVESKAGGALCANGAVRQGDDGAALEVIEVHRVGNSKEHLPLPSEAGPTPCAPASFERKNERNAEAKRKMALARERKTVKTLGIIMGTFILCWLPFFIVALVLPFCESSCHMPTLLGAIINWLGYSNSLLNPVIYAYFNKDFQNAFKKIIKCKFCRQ

[2] = molecular target: 5-hydroxytryptamine receptor 1E (Homo sapiens) (UniProt P28566); test: Displacement of [3H]5HT from 5HT1E receptor (unknown origin) at 10 uM
5-hydroxytryptamine receptor 1E (Homo sapiens), sequence (P28566 whole entry): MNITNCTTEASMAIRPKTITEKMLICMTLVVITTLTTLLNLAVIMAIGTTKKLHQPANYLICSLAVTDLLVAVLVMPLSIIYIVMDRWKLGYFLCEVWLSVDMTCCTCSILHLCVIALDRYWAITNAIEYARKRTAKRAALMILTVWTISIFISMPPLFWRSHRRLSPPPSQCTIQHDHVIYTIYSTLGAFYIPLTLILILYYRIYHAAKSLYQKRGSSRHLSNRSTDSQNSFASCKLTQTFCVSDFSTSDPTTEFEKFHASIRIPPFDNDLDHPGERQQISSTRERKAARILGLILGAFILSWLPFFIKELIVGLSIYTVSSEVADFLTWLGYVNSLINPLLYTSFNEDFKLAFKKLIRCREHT

[3] = molecular target: 5-hydroxytryptamine receptor 2A (Homo sapiens) (UniProt P28223); test: Displacement of [3H]ketanserin from 5HT2A receptor (unknown origin) at 10 uM
5-hydroxytryptamine receptor 2A (Homo sapiens), sequence (P28223 whole entry): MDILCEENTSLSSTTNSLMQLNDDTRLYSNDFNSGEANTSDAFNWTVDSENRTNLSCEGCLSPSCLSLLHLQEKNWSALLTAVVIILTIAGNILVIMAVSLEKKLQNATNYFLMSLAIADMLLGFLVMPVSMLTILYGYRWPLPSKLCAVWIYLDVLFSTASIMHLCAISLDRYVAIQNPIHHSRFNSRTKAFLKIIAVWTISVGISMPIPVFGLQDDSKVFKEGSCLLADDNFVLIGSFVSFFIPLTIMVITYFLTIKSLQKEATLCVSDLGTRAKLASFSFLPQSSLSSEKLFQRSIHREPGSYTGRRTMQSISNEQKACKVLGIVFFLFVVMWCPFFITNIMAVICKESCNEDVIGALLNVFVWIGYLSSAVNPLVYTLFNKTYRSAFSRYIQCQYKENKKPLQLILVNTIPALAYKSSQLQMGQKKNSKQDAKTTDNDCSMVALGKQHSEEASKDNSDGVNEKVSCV

[4] = molecular target: 5-hydroxytryptamine receptor 2B (Homo sapiens, UniProt P41595); test: Displacement of [3H]LSD from 5HT2B receptor (unknown origin) at 10 uM
5-hydroxytryptamine receptor 2B, sequence (P41595 whole entry): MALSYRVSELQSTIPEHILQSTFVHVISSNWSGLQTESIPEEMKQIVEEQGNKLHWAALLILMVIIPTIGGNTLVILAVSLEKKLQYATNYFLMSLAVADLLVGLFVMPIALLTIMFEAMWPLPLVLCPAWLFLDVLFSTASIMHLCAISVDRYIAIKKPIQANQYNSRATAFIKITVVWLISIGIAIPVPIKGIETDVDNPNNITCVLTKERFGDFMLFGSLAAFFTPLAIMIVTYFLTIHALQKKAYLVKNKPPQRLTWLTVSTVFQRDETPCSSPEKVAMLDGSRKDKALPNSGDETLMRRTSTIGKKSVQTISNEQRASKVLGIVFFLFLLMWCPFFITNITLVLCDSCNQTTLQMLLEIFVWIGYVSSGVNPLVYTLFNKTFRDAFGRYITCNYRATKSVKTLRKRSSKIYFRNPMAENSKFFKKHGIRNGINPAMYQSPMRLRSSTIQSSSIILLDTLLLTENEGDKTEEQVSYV

[5] = molecular target: Alpha-1A adrenergic receptor (Homo sapiens) (UniProt P35348); test: Binding affinity to alpha1A adrenoceptor (unknown origin) at 10 uM
Alpha-1A adrenergic receptor (Homo sapiens), sequence (P35348 whole entry): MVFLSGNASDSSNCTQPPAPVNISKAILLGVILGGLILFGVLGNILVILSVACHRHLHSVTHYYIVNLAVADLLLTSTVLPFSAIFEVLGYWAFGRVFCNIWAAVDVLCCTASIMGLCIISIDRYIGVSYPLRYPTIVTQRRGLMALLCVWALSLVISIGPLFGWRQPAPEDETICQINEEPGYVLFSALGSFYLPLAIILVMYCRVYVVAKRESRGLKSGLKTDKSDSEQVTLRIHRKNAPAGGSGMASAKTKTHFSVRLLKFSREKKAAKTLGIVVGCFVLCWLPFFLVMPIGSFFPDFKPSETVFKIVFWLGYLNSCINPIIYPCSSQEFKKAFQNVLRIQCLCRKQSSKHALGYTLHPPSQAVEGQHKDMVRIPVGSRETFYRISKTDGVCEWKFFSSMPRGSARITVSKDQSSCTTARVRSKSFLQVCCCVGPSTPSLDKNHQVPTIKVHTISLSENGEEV

[6] = molecular target: Alpha-1D adrenergic receptor (Homo sapiens) (UniProt P25100); test: Binding affinity to alpha1D adrenoceptor (unknown origin) at 10 uM
Alpha-1D adrenergic receptor (Homo sapiens), sequence (P25100 whole entry): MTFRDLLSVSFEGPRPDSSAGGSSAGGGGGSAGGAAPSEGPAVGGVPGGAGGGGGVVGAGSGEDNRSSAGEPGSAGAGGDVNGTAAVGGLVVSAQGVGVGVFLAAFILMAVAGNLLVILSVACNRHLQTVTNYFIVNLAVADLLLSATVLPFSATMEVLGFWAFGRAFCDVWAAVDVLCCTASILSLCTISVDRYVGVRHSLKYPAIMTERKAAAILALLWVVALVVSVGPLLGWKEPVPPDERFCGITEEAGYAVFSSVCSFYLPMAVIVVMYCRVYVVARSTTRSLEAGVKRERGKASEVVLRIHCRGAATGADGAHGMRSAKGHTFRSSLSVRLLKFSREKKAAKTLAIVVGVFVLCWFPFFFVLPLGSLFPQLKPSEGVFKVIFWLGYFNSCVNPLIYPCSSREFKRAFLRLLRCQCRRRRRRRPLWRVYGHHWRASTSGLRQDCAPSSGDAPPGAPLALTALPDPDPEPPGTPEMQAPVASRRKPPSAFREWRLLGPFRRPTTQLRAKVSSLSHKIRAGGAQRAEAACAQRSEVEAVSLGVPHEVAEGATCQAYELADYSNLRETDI

[7] = molecular target: Beta-1 adrenergic receptor (Homo sapiens) (UniProt P08588); test: Binding affinity to beta1 adrenoceptor (unknown origin) at 10 uM
[8] = molecular target: Beta-3 adrenergic receptor (Homo sapiens) (UniProt P13945); test: Binding affinity to beta3 adrenoceptor (unknown origin) at 10 uM
Beta-3 adrenergic receptor (Homo sapiens), sequence (P13945 whole entry, looked up): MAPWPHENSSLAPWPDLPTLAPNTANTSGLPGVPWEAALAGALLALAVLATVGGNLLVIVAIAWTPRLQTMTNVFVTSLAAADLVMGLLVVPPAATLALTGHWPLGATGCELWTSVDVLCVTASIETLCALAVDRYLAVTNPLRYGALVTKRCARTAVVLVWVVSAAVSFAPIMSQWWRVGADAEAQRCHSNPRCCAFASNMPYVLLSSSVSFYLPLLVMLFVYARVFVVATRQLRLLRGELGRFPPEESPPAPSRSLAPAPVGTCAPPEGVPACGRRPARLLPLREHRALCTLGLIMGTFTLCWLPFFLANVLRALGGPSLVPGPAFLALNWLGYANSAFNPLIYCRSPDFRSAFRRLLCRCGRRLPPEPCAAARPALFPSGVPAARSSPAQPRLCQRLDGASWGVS

[9] = molecular target: Histamine H1 receptor (Homo sapiens) (UniProt P35367); test: Binding affinity to histamine H1 receptor (unknown origin) at 10 uM
Histamine H1 receptor (Homo sapiens), sequence (P35367 whole entry): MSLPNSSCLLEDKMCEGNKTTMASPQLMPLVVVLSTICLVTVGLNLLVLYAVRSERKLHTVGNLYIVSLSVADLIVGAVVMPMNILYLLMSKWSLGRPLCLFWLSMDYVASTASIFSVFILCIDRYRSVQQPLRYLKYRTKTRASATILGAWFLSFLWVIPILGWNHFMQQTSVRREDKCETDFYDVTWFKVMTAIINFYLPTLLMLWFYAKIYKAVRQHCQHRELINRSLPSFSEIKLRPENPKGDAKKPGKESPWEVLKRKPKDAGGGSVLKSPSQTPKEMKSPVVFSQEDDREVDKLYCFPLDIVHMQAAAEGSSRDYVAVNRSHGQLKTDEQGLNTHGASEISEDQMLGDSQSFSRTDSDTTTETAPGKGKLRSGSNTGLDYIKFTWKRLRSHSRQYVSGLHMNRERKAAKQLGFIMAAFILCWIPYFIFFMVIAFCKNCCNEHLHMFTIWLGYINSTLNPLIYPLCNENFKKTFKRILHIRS

[10] = molecular target: Kappa-type opioid receptor (Homo sapiens) (UniProt P41145); test: Binding affinity to KOR (unknown origin) at 10 uM
Kappa-type opioid receptor (Homo sapiens), sequence (P41145 whole entry): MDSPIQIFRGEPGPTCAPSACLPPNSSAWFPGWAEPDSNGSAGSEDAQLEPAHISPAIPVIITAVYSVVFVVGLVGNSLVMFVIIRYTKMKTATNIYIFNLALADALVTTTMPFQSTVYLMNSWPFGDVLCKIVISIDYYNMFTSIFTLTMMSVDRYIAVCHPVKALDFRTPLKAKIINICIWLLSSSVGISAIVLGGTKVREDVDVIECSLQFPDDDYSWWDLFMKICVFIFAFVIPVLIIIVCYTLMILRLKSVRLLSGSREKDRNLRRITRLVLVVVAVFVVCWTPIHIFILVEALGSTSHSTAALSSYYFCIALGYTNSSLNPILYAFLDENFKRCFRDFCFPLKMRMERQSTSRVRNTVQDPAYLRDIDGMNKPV

[11] = molecular target: Muscarinic acetylcholine receptor M4 (Homo sapiens) (UniProt P08173); test: Binding affinity to muscarinic M4 receptor (unknown origin) at 10 uM
Muscarinic acetylcholine receptor M4 (Homo sapiens), sequence (P08173 whole entry): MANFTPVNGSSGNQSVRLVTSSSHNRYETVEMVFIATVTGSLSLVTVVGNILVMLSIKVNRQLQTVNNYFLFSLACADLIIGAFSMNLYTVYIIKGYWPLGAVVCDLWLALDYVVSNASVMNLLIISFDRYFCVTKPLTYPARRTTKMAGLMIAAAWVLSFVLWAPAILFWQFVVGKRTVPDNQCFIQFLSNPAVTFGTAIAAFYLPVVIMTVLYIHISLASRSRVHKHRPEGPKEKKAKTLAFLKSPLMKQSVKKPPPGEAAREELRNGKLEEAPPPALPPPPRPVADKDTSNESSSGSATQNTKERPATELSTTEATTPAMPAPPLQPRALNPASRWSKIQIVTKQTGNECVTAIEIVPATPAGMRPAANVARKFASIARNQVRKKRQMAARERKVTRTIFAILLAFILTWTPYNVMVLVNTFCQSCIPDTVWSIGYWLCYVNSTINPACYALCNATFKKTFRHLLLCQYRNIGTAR

[12] = molecular target: Mu-type opioid receptor (Homo sapiens) (UniProt P35372); test: Binding affinity to MOR (unknown origin) at 10 uM
Mu-type opioid receptor (Homo sapiens), sequence (P35372 whole entry): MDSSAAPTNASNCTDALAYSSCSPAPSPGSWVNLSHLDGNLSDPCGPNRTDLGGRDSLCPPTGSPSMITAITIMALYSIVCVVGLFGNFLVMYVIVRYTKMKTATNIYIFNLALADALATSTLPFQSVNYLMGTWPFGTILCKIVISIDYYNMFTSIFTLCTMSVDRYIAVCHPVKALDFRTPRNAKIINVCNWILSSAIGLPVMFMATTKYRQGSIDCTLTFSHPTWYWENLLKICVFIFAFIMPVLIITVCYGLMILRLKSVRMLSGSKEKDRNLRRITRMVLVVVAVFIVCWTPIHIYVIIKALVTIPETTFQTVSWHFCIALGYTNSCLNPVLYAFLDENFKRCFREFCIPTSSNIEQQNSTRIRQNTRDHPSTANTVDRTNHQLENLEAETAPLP

[13] = molecular target: Glutamate NMDA receptor; GRIN1/GRIN2A (Homo sapiens) (UniProt Q05586+Q12879); test: Binding affinity to NMDA receptor (unknown origin) at 10 uM; type: protein-complex assay
[14] = molecular target: Sigma non-opioid intracellular receptor 1 (Homo sapiens) (UniProt Q99720); test: Binding affinity to sigma-1 receptor (unknown origin) at 10 uM
Sigma non-opioid intracellular receptor 1 (Homo sapiens), sequence (Q99720 whole entry): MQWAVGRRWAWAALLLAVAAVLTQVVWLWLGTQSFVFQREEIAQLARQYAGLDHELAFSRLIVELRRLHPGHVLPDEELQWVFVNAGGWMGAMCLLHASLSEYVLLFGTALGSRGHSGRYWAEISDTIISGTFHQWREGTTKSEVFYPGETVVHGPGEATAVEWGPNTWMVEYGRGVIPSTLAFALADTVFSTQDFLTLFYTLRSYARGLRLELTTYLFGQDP

Sigma 2 receptor = test: Binding affinity to sigma-2 receptor (unknown origin) at 10 uM; conditions: Homo sapiens
[15] = molecular target: Muscarinic acetylcholine receptor M1 (Homo sapiens, UniProt P11229); test: Binding affinity to muscarinic M1 receptor (unknown origin)

In the case of `COc1cc2c3c(c1OC)-c1cc4c(cc1CC3N(C)CC2c1ccccc1)OCO4` (stereo unspecified), the inhibition [1] was 5.5%, the inhibition [2] was 10.1% and the inhibition [3] was 33.5%. For the same compound, the inhibition [4] was 92.2%, the inhibition [5] was less than 50% and the inhibition [6] was less than 50%. It also gave an inhibition [7] of less than 50%, an inhibition [8] of less than 50% and an inhibition [9] of less than 50%. It also gave an inhibition [10] of less than 50%, an inhibition [11] of less than 50% and an inhibition [12] of less than 50%. The inhibition [13] was less than 50%, the inhibition [14] was less than 50% and the inhibition (Sigma 2 receptor) was less than 50%. The pKi [15] was less than 5.00.
